Holding throughout (type): cell-based, human
The test system of data set [1] is AAVS1. The data set can be described thus: 300 base insertion in fibroblasts (SfoI cut band). The method, then: In the gel, Lane 1: 100 base ladder; Lane 2: Ultraslice and SfoI 300 base insertion dsDNA repair template (Untreated); and Lane 3: Ultraslice and SfoI 300 base insertion dsDNA repair template (NU7441 9 uM 72 h treated).
A further data set has as its system AAVS1 safe-harbor locus. Description: SfoI assay (RFLP) of single-base editing in fibroblasts. To be noted: for increase in single-base editing / base change efficiency compared to untreated: application after transfection (25 μM 48 h post electroporation). The method, then: The following general protocol was used for an Sfol assay to quantify insertion of repair template.
(§1) • 1. Fibroblasts were cultured using DMEM+10% FBS media in 37° Celsius with 5% O2 and 5% CO2 • 2. iPSC was cultured using mTeSR+Y27632 in 37° Celsius with 5% O2 and 5% CO2
(§2) • 3. After detaching cells with TrypleE and DTI, standard electroporation protocol was performed • 4. 0.8 ug˜1 ug of AAVS1 Ultraslice RNA and 600 ng of SfoI ssDNA repair template was delivered by electroporation. Ultraslice is a temperature sensitive gene-editing protein. The SfoI base change ssDNA repair template was a single stranded DNA piece with homology arms that is used as template for targeted DNA repair • 5. Fibroblasts were electroporated with 700 V, 20 ms, 1 pulse • 6. iPSCs were electroporated with 1100 V, 20 ms, 2 pulse)
• 7. Cells were detached 48 h˜72 h post electroporation and centrifuged to obtain cell pellets • 8. Perform genomic DNA extraction was performed using ZYMO Research Quick DNA Miniprep Kit (Catalog #: D3024)
• 9. AAVS1 surveyor PCR was performed using KAPA Hifi Hotstart PCR kit
• 10. 250 ng˜400 ng of AAVS1 PCR amplicon was obtained • 11. Amplicon was mixed with 2 μl of 10× Tango Buffer and 1 μl of EheI enzyme • 12. The mixture was incubated for 1 h in 37° C., followed by 20 mins at 65° C.
• 13. After diluting SfoI assay product with 40 ul of H2O, 20 ul of product was loaded to 2% Egel • 14. After running 2% Egel for 10 minutes, the gel was visualized and SfoI band intensity was quantified using Chemidoc and ImageJ software
Following treatment with resveratrol, fibroblasts was co-transfected with mRNA encoding a chromatin context-sensitive gene-editing protein targeting the AAVS1 safe-harbor locus and a single-stranded DNA repair template designed to introduce a SfoI restriction-enzyme site through a G-to-C mutation. Single-base editing efficiency was determined by restriction fragment length polymorphism (RFLP) analysis. […] In the gel, Lane 1: 100 base ladder; Lane 2: Ultraslice and SfoI base change ssDNA repair template (Resveratrol 25 μM 48 h pretreatment); Lane 3: Ultraslice and SfoI base change ssDNA repair template (Untreated); and Lane 4: Ultraslice and SfoI base change ssDNA repair template (Resveratrol 25 μM treatment 48 post electroporation).

Data set [2] has as its system AAVS1. Description: 1 kb insertion in iPSCs (AAVS1 sPCR amplicon gel). The settings on record: iPSC. On the procedure:
as §1, §2
In this experiment, the gel image is AAVS1 sPCR amplicon and not Sfol assay product. In the gel, Lane 1: 1000 base ladder; Lane 2: Ultraslice (Clean cap) and SfoI 1 kb insertion ssDNA repair template with 90b homology arm (Reverse transcription); and Lane 3: Ultraslice (Clean cap) and SfoI 1 kb insertion ssDNA repair template with 90b homology arm (Reverse transcription)—Resveratrol 25 uM 24 h incubation.
In this experiment, the gel image is AAVS1 sPCR amplicon and not Sfol assay product. […]

In a further data set the test system is fibroblasts. Description: cell cycle S/G2 population after Resveratrol treatment.
The next data set concerns iMSCs. The data set can be described thus: electroporation of GFP repair template at AAVS1 with or without TTAGGG motif. To be noted: gene-editing at AAVS1 with GFP repair template. On the procedure: FIG. 54 is a graphical illustration of the mechanism of action that the inclusion of the TTAGGG motif has on cells during electroporation. Cells were electroporated with and without the addition of a gene editing protein, UltraSlice. All electroporation's were performed using the Invitrogen NEON.
In this example, the TTAGGG motif was incorporated onto the 5′ end of a double stranded repair template or co-electroporated as a short oligo fragment in primary fibroblasts, iMSC, or iPSC.
The sequence of the TTAGGG motif used in this example was: […] (SEQ ID NO: 15). This motif was incorporated at the 5′ and 3′ end of dsODN via PCR amplification using the primer pair A151-AAVS1, Forward primer: […] (SEQ ID NO: 86) and A151-AAVS1, Reverse primer: […] (SEQ ID NO: 87). Control primers without the motif had the following sequences: AAVS1, Forward primer: […] (SEQ ID NO: 88) and AAVS1, Reverse primer: […] (SEQ ID NO: 89). The full sequence of the repair template that human primary fibroblasts, iMSCs and iPSCs was: AAVS1-h90-pJeT-GFP-SpA-h90. This repair template included a dsODN encoding a GFP reporter and containing an SfoI restriction site targeting the AAVS1 site with 90 base pairs of homology. The A151 sequence was added to the end of a double stranded repair template using PCR amplification. Repair templates were then purified using the Qiagen QIAquick PCR Purification kit prior to electroporation. […]

Several values for one entry are separate records, joined by “and”; a condition that tells them apart may be missing. Equal values may be shown once.

Take `O=c1cc(N2CCOCC2)oc2c(-c3cccc4c3sc3ccccc34)cccc12` [NU7441]: the “gene-editing efficiency (gel)” value in the data set with AAVS1 [1] is listed as “increased gene-editing efficiency”. For the same compound, the “increase in 300b insertion SfoI cut band intensity compared to untreated” value with AAVS1 [1] (fibroblasts, 9 uM 72 h incubation) turned out to be 7 fold.
Regarding `Oc1ccc(C=Cc2cc(O)cc(O)c2)cc1` [Resveratrol], the “increase in single-base editing / base change efficiency compared to untreated” value with AAVS1 safe-harbor locus is listed as “approximately 2.3 fold”; with AAVS1 safe-harbor locus (listed as resveratrol) it was more than 2 fold. The “increase in HDR / base change efficiency compared to untreated” value in the data set on AAVS1 safe-harbor locus (fibroblasts, 25 μM 48 h pretreatment prior to transfection) was 2.2 fold and 2 fold. Moreover, in the data set on AAVS1 safe-harbor locus (pretreated fibroblasts), the “gene-editing efficiency (gel)” value is on record as “increased gene-editing efficiency”. Besides, in the data set on AAVS1 [2] (25 uM for 24 h post electroporation, ssDNA repair template (Reverse transcription)), the “1 kb insertion rate” value is 8.7%. The “increase of 1 kb insertion” value in the data set on AAVS1 [2] (treatment after electroporation) is on record as 1.6 fold. Besides, in the data set with fibroblasts (25 uM for 48 h followed by 8 h incubation in DMEM/10% FBS), the “increase in S/G2 population” value is “approximately 40%”. In the data set with fibroblasts (treatment prior to transfection, compared to untreated cells), the “increase of the S and G2-phase population” value is given as 2.3 fold.
For the compound TTAGGGTTAGGGTTAGGGTTAGGG [A151 ODN], in the data set on iMSCs, the “higher viability than when the motif was not present” value is given as “approximately 50%” and the “more GFP-positive cells than when the motif was not present” value was “approximately 50%”.

Source of the values: patent US20260108554A1, “METHODS FOR REPROGRAMMING AND GENE EDITING CELLS” (Factor Bioscience Inc., priority 2022, published 2026).
